Measured values taken from the supplement of paper PMC4862054.

How the values were obtained:
Conditions in all cases: incubation time: 72 h
[1] = tested on: BT-474; test: normalised response (% of control), CellTox Green; higher = less cell death (100 = DMSO, 0 = benzethonium chloride kill control)
Outline: (§1)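 The table gives the normalised signal for a single concentration in each entry. Breast cancer cell lines were seeded (20 µl suspension) into 384-well plates holding compound at 5 concentrations in 10-fold steps over a compound-specific 10,000-fold range and incubated 72 h, then read for CellTox Green fluorescence (485/520 nm) and CellTiter-Glo luminescence. Normalisation on each plate used 0.1 % DMSO (100) and a positive kill control (0).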

[2] = tested on: BT-549; test: as above
Outline: as §1

[3] = tested on: CAL-120; test: as above
Outline: as §1

[4] = tested on: CAL-148; test: as above
Outline: as §1

[5] = tested on: CAL-51; test: as above
Outline: as §1

[6] = tested on: CAL-85-1; test: as above
Outline: as §1

[7] = tested on: DU-4475; test: as above
Outline: as §1

[8] = tested on: HCC1143; test: as above
Outline: as §1

[9] = tested on: HCC1599; test: as above
Outline: as §1

[10] = tested on: HCC1937; test: as above
Outline: as §1

[11] = tested on: HDQ-P1; test: as above
Outline: as §1

[12] = tested on: Hs578T; test: as above
Outline: as §1

[13] = tested on: MCF-10A; test: as above
Outline: as §1

[14] = tested on: MDA-MB-231; test: as above
Outline: as §1

[15] = tested on: MDA-MB-436; test: as above
Outline: as §1

[16] = tested on: MDA-MB-453; test: as above
Outline: as §1

[17] = tested on: MDA-MB-468; test: as above
Outline: as §1

[18] = tested on: MFM-223; test: as above
Outline: as §1

[19] = tested on: BT-474; test: normalised response (% of control), CellTiter-Glo; higher = more viable cells (100 = DMSO, 0 = benzethonium chloride kill control)
Experimental: (§2)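 DSRT, 72 h incubation, CellTox Green / CellTiter-Glo readout. Signal is normalised to DMSO and benzethonium chloride controls. Value is the normalised response at dose 3.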

[20] = tested on: BT-549; test: as above
Experimental: as §2

[21] = tested on: CAL-120; test: as above
Experimental: as §2

[22] = tested on: CAL-148; test: as above
Experimental: as §2

[23] = tested on: CAL-51; test: as above
Experimental: as §2

[24] = tested on: CAL-85-1; test: as above
Experimental: as §2

[25] = tested on: DU-4475; test: as above
Experimental: as §2

[26] = tested on: HCC1143; test: as above
Experimental: as §2

[27] = tested on: HCC1599; test: as above
Experimental: as §2

[28] = tested on: HCC1937; test: as above
Experimental: as §2

[29] = tested on: HDQ-P1; test: as above
Experimental: as §2

[30] = tested on: MCF-10A; test: as above
Experimental: as §2

[31] = tested on: MDA-MB-231; test: as above
Experimental: as §2

[32] = tested on: MDA-MB-436; test: as above
Experimental: as §2

[33] = tested on: MDA-MB-453; test: as above
Experimental: as §2

[34] = tested on: MDA-MB-468; test: as above
Experimental: as §2

[35] = tested on: MFM-223; test: as above
Experimental: as §2

[36] = tested on: SK-BR-3; test: as above
Experimental: as §2

[37] = tested on: BT-474; test: as above; remark: listed apart in the source
Experimental: (§3)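 DSRT, 72 h incubation, CellTox Green / CellTiter-Glo readout. Signal is normalised to DMSO and benzethonium chloride controls. Value is the normalised response at the highest dose.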

[38] = tested on: BT-549; test: as above; remark: listed apart in the source
Experimental: as §3

[39] = tested on: CAL-120; test: as above; remark: listed apart in the source
Experimental: as §3

[40] = tested on: CAL-148; test: as above; remark: listed apart in the source
Experimental: as §3

[41] = tested on: CAL-51; test: as above; remark: listed apart in the source
Experimental: as §3

[42] = tested on: CAL-85-1; test: as above; remark: listed apart in the source
Experimental: as §3

[43] = tested on: DU-4475; test: as above; remark: listed apart in the source
Experimental: as §3

[44] = tested on: HCC1143; test: as above; remark: listed apart in the source
Experimental: as §3

[45] = tested on: HCC1599; test: as above; remark: listed apart in the source
Experimental: as §3

[46] = tested on: HCC1937; test: as above; remark: listed apart in the source
Experimental: as §3

[47] = tested on: HDQ-P1; test: as above; remark: listed apart in the source
Experimental: as §3

[48] = tested on: Hs578T; test: as above
Experimental: as §3

[49] = tested on: MCF-10A; test: as above; remark: listed apart in the source
Experimental: as §3

[50] = tested on: MDA-MB-231; test: as above; remark: listed apart in the source
Experimental: as §3

[51] = tested on: MDA-MB-436; test: as above; remark: listed apart in the source
Experimental: as §3

[52] = tested on: MDA-MB-453; test: as above; remark: listed apart in the source
Experimental: as §3

[53] = tested on: MDA-MB-468; test: as above; remark: listed apart in the source
Experimental: as §3

[54] = tested on: MFM-223; test: as above; remark: listed apart in the source
Experimental: as §3

[55] = tested on: SK-BR-3; test: as above; remark: listed apart in the source
Experimental: as §3

| SMILES | normalised response [1] | normalised response [2] | normalised response [3] | normalised response [4] | normalised response [5] | normalised response [6] | normalised response [7] | normalised response [8] | normalised response [9] | normalised response [11] | normalised response [12] | normalised response [13] | normalised response [14] | normalised response [16] | normalised response [17] | normalised response [18] | normalised response [37] | normalised response [38] | normalised response [39] | normalised response [40] | further results |
| --- | --- | --- | --- | --- | --- | --- | --- | --- | --- | --- | --- | --- | --- | --- | --- | --- | --- | --- | --- | --- | --- |
| Cn1c(=O)n(-c2ccc(C(C)(C)C#N)cc2)c2c3cc(-c4cnc5ccccc5c4)ccc3ncc21 [Dactolisib] (10 nM) | 101% | 110% | 98.7% | 103% | 113% | 101% | 104% | 55.5% | 115% | 116% | 116% | 108% | 120% | 108% | 130% | 104% |  |  |  |  | normalised response [10]: 122%; normalised response [15]: 102%; normalised response [19]: 80.5%; normalised response [20]: 61.5%; normalised response [21]: 62.1%; normalised response [22]: 88.5%; normalised response [23]: 68.4%; normalised response [24]: 62.9%; normalised response [25]: 96.3%; normalised response [26]: 78%; normalised response [27]: 97.5%; normalised response [28]: 85.5%; normalised response [29]: 80.1%; normalised response [30]: 99.8%; normalised response [31]: 80.3%; normalised response [32]: 65.9%; normalised response [33]: 75.9%; normalised response [34]: 84.3%; normalised response [35]: 83.8%; normalised response [36]: 73.6% |
| Cc1ccc(NC(=O)c2ccc(CN3CCN(C)CC3)cc2)cc1Nc1nccc(-c2cccnc2)n1 [Imatinib] (10000 nM) | 96.6% | 92.7% | 101% | 103% | 93.1% | 84.2% | 97.9% | 91.2% | 94.8% | 74.4% | 76.1% | 65.1% | 114% | -13.7% | 113% | 99.9% | 87.4% | 89.5% | 108% | 116% | normalised response [15]: 87.4%; normalised response [41]: 76.5%; normalised response [42]: 85.7%; normalised response [43]: 107%; normalised response [44]: 91.3%; normalised response [45]: 71.6%; normalised response [46]: 83.6%; normalised response [47]: 111%; normalised response [48]: 98.3%; normalised response [49]: 128%; normalised response [50]: 94.8%; normalised response [51]: 94.3%; normalised response [52]: 73.4%; normalised response [53]: 86.8%; normalised response [54]: 87.7%; normalised response [55]: 84.7% |
| c1ccc([C@H]2CN3CCSC3=N2)cc1 [Levamisole] (10000 nM) | 101% | 95.8% | 98.4% | 53.5% | 113% | 79.1% | 104% | 106% | 92.5% | 72.4% | 72% | 67.3% |  | 71.4% | 110% | 95.2% | 102% | 96.5% | 112% | 106% | normalised response [10]: 82.5%; normalised response [41]: 119%; normalised response [42]: 94%; normalised response [43]: 98.9%; normalised response [44]: 99.3%; normalised response [45]: 114%; normalised response [46]: 100%; normalised response [47]: 104%; normalised response [48]: 100%; normalised response [49]: 110%; normalised response [50]: 104%; normalised response [51]: 108%; normalised response [52]: 106%; normalised response [53]: 104%; normalised response [54]: 108%; normalised response [55]: 110% |
| CNNCc1ccc(C(=O)NC(C)C)cc1 [Procarbazine] (10000 nM) | 103% | 94% | 111% | 93% | 110% | 72% | 96.2% | 115% | 98.3% | 99.9% | 108% | 115% | 99% | 60.5% |  | 94.5% | 98% | 101% | 106% | 107% | normalised response [15]: 81.7%; normalised response [41]: 96.3%; normalised response [42]: 99.3%; normalised response [43]: 102%; normalised response [44]: 113%; normalised response [45]: 96.8%; normalised response [46]: 103%; normalised response [47]: 104%; normalised response [48]: 105%; normalised response [49]: 109%; normalised response [50]: 103%; normalised response [51]: 103%; normalised response [52]: 102%; normalised response [53]: 99.4%; normalised response [54]: 108%; normalised response [55]: 109% |
| CN1CCN(CCOc2cc(OC3CCOCC3)c3c(Nc4c(Cl)ccc5c4OCO5)ncnc3c2)CC1 [Saracatinib] (10000 nM) | 42% | 86.2% | 94.5% | 68.4% | 58% | 29.9% | 95.5% | 96.4% | 76.6% | 68.9% | 59.7% | 87.1% | 51.3% | 79% | 125% | 90.4% | 55% | 57.8% | 66.3% | 75.2% | normalised response [10]: 81.7%; normalised response [41]: 59.8%; normalised response [42]: 27.9%; normalised response [43]: 106%; normalised response [44]: 67.1%; normalised response [45]: 19.4%; normalised response [46]: 56%; normalised response [47]: 34.6%; normalised response [48]: 64.8%; normalised response [49]: 21.4%; normalised response [50]: 47.5%; normalised response [51]: 83%; normalised response [52]: 63.1%; normalised response [53]: 67.5%; normalised response [54]: 64.9%; normalised response [55]: 46.9% |
